In US5314901A, “1,2,5,6-tetrahydropyridine oxime compounds” (Beecham Group p.l.c., priority 1990, dated 1994):
Structures can show the parent of a compound that is named as a salt.

How the values were obtained:
[1] = molecular target: muscarinic receptors (3H-QNB), cerebral cortex; assay: Radio ligand binding: displacement of the muscarinic antagonist 3H-Quinuclidinyl Benzilate (3H-QNB) from rat cerebral cortex membranes; design: species or system Hooded Lister rats; details: displacement of 0.27 nM 3H-QNB (muscarinic antagonist), 37° C., 30 min
[2] = molecular target: muscarinic receptors (3H-OXO-M), cerebral cortex; assay: Radio ligand binding: displacement of the muscarinic agonist 3H-Oxotremorine-M (3H-OXO-M) from rat cerebral cortex membranes; design: species or system Hooded Lister rats; details: displacement of 2 nM 3H-OXO-M (muscarinic agonist), 2 mM magnesium chloride, 37° C., 30 min

Compound | IC50 [1] | IC50 [2]
CO/N=C(\CF)C1=CCCNC1 [E 7, Z-3-(α-Fluoroacetyl)-1,2,5,6-tetrahydropyridine-O-methyl oxime hydrochloride salt] | 17 µM | 0.42 µM
CON=C(Cl)C1=CCCNC1 [E 9, 1,2,5,6-Tetrahydropyridin-3-yl-N-methoxycarboximidoyl chloride oxalate salt] | 4.7 µM | 0.18 µM
CCN1CCC=C(C(C#N)=NOC)C1 [E 11, α-(Methoxyimino)-α-(1-ethyl-1,2,5,6-tetrahydropyridin-3-yl) acetonitrile oxalate salt] | – | 1.18 µM
CON=C(C#N)C1=CCCNC1 [E 10, α-(Methoxyimino)-α-(1,2,5,6-tetrahydropyridin-3-yl)acetonitrileoxalate salt] | 1.15 µM | 0.035 µM
CON=C(C1=CCCN(C)C1)C(F)F [E 5, E- and Z-1-Methyl-3-(α,α-difluoroacetyl)-1,2,5,6-tetrahydropyridine-O-methyl oxime oxalate salt] | – | 1.25 µM
CON=C(F)C1=CCCNC1 [E 8, 1,2,5,6-Tetrahydropyridin-3-yl-N-methoxycarboximidoyl fluoride oxalate salt] | 2.85 µM | 0.041 µM
CON=C(C1=CCCN(C)C1)C(F)(F)F [E 4, E- and Z-1-Methyl-3-(α,α,α-trifluoroacetyl)-1,2,5,6-tetrahydropyridine-O-methyl oxime oxalate salt] | 16.5 µM | 0.225 µM

Continued, values first:

IC50 [1] | IC50 [2] | Compound
8.5 µM | 0.62 µM | CO/N=C(\CF)C1=CCCN(C)C1 [E 6, Z-1-Methyl-3-(α-fluoroacetyl)-1,2,5,6-tetrahydropyridine-O-methyl oxime oxalate salt]
2.8 µM | 0.259 µM | CON=C(Cl)C1=CCCN(C)C1 [E 1, 1-Methyl-1,2,5,6-tetrahydropyridin-3-yl-N-methoxycarboximidoyl chloride oxalate salt]
1.5 µM | 0.039 µM | CON=C(F)C1=CCCN(C)C1 [E 2, 1-Methyl-1,2,5,6-tetrahydropyridin-3-yl-N-methoxycarboximidoyl fluoride oxalate salt]
9.5 µM | 0.215 µM | CON=C(C#N)C1=CCCN(C)C1 [E 3, α-(Methoxyimino)-α-(1-methyl-1,2,5,6-tetrahydropyridin-3-yl) acetonitrile oxalate salt]
